Data reported in ChEMBL document CHEMBL1201862, “PubChem BioAssay data set” (2004).
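Grown in 96-well plates, cells were treated for 48 hours with each compound at five concentrations. Insufficient inhibition: endpoint recorded as highest concentration tested. GI50 = concentration required for 50% inhibition of growth.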 Calls of active or inactive are those of the source. No stated cut-off is given here; in the data, active = GI50 up to about 1.1 µM and inactive = higher.

Tests used:
Assay in all cases: NCI anticancer screen, dose series, 48 h
ACHN = test system: ACHN
EKVX = test system: EKVX
HCT-116 = test system: HCT-116
HT-29 = test system: HT-29
IGROV-1 = test system: IGROV-1
K562 = test system: K562
LXFL 529 = test system: LXFL 529
MOLT-4 = test system: MOLT-4
OVCAR-3 = test system: OVCAR-3
OVCAR-4 = test system: OVCAR-4
OVCAR-8 = test system: OVCAR-8
RPMI-8226 = test system: RPMI-8226
SF-539 = test system: SF-539
SK-MEL-2 = test system: SK-MEL-2
SW-620 = test system: SW-620
U-251 = test system: U-251
NCI-H522 = test system: NCI-H522
PC-3 = test system: PC-3
SK-MEL-5 = test system: SK-MEL-5
SR = test system: SR

Measured: GI50

O=C(OC1CCC(=C2SCCCS2)[C@H]1C1SCCCS1)c1ccccc1 (stereo partly specified)
inactive: ACHN > 100 µM | EKVX > 100 µM | HCT-116 88.3 µM | HT-29 > 100 µM | IGROV-1 > 100 µM | K562 75 µM | LXFL 529 > 100 µM | MOLT-4 > 100 µM | OVCAR-3 > 100 µM | OVCAR-4 84.5 µM | OVCAR-8 > 100 µM | RPMI-8226 86.3 µM | SF-539 > 100 µM | SK-MEL-2 > 100 µM | SW-620 > 100 µM | U-251 > 100 µM

CC(=O)C1=C(C)N(c2ccccc2)C2(O)C=CC(O)=C3C(=O)c4ccccc4C(=O)C312 (stereo unspecified)
inactive: ACHN 11.4 µM | EKVX 18.2 µM | HCT-116 8.15 µM | HT-29 4.7 µM | IGROV-1 8.91 µM | K562 8.13 µM | MOLT-4 8.28 µM | NCI-H522 16.3 µM | OVCAR-3 3.52 µM | OVCAR-4 20.9 µM | OVCAR-8 9.18 µM | PC-3 17.8 µM | RPMI-8226 3.37 µM | SF-539 21.1 µM | SK-MEL-2 15.3 µM | SK-MEL-5 10.6 µM | SR 8.55 µM | SW-620 7.64 µM | U-251 18 µM

COc1cc(NS(C)(=O)=O)ccc1NCc1c[nH]c2ccc3ncccc3c12
inactive: ACHN 21 µM | EKVX 20.2 µM | HCT-116 21.2 µM | HT-29 23.2 µM | IGROV-1 37.1 µM | K562 9.12 µM | MOLT-4 5.83 µM | NCI-H522 14.2 µM | OVCAR-3 23.2 µM | OVCAR-4 20.7 µM | OVCAR-8 25 µM | PC-3 19.4 µM | RPMI-8226 11.3 µM | SF-539 19.3 µM | SK-MEL-2 19.5 µM | SK-MEL-5 12.4 µM | SR 2.75 µM | SW-620 26.1 µM | U-251 27.5 µM

CCCCCCCCCCCCCC(=O)N(CCCCCCCCC)CC(O)C(O)C(OC1OC(CO)C(O)C(O)C1O)C(O)CO (stereo unspecified)
inactive: ACHN 15.8 µM | EKVX 18 µM | HCT-116 17.4 µM | HT-29 18.5 µM | IGROV-1 20.2 µM | K562 19.9 µM | MOLT-4 24.4 µM | NCI-H522 23 µM | OVCAR-3 26.6 µM | OVCAR-4 24 µM | OVCAR-8 20.8 µM | PC-3 21.8 µM | RPMI-8226 29.9 µM | SF-539 22 µM | SK-MEL-2 24.6 µM | SK-MEL-5 19.5 µM | SR 25.6 µM | SW-620 19.9 µM | U-251 22.5 µM

O=C(O)c1ccccc1/C=N/N=C1NCCN1
inactive: ACHN 98.9 µM | EKVX > 100 µM | HCT-116 > 100 µM | HT-29 > 100 µM | IGROV-1 > 100 µM | K562 > 100 µM | MOLT-4 > 100 µM | NCI-H522 71.8 µM | OVCAR-3 > 100 µM | OVCAR-4 > 100 µM | OVCAR-8 > 100 µM | PC-3 > 100 µM | RPMI-8226 39.7 µM | SF-539 > 100 µM | SK-MEL-2 59.6 µM | SK-MEL-5 > 100 µM | SR 88.5 µM | SW-620 > 100 µM | U-251 > 100 µM

CCC(C)C1(O)OC2CC3(C)OC(=CC3=O)/C(C)=C\C3OC(=O)C1(C)C32 (stereo unspecified)
inactive: ACHN 9.14 µM | EKVX 12.7 µM | HCT-116 6.47 µM | HT-29 14.2 µM | IGROV-1 18.8 µM | K562 7.6 µM | MOLT-4 12.3 µM | NCI-H522 3.92 µM | OVCAR-3 10.4 µM | OVCAR-4 42.5 µM | OVCAR-8 16 µM | PC-3 37.2 µM | RPMI-8226 7.1 µM | SF-539 22.3 µM | SK-MEL-2 21.3 µM | SK-MEL-5 10.5 µM | SR 5 µM | SW-620 3.37 µM | U-251 27.5 µM

CN(O)C(=O)c1cccc(Cl)c1
inactive: ACHN > 100 µM | EKVX > 100 µM | HCT-116 > 100 µM | HT-29 70.6 µM | IGROV-1 91.8 µM | K562 > 100 µM | MOLT-4 51.2 µM | NCI-H522 > 100 µM | OVCAR-3 > 100 µM | OVCAR-4 > 100 µM | OVCAR-8 > 100 µM | PC-3 > 100 µM | RPMI-8226 > 100 µM | SF-539 > 100 µM | SK-MEL-2 > 100 µM | SK-MEL-5 > 100 µM | SR 32.7 µM | SW-620 > 100 µM | U-251 > 100 µM

O=C(NCCCNC(=O)c1ccc2c(O)c(O)ccc2c1)c1ccc2c(O)c(O)ccc2c1
inactive: ACHN 24.2 µM | EKVX 32.4 µM | HCT-116 32.3 µM | HT-29 26.2 µM | IGROV-1 18.8 µM | K562 19.1 µM | MOLT-4 20.4 µM | NCI-H522 23.8 µM | OVCAR-3 22.8 µM | OVCAR-4 57.5 µM | OVCAR-8 35.6 µM | PC-3 47.1 µM | RPMI-8226 39.7 µM | SF-539 28.1 µM | SK-MEL-2 35.3 µM | SK-MEL-5 20.3 µM | SR 15.1 µM | SW-620 25.5 µM | U-251 24.1 µM

CCOC(=O)Cn1nc2ccc(Nc3c(C)[n+]([O-])c4cc(F)c(OCC)cc4[n+]3[O-])cc2n1
inactive: ACHN 22.4 µM | EKVX > 100 µM | HCT-116 > 100 µM | HT-29 > 100 µM | IGROV-1 > 100 µM | K562 > 100 µM | MOLT-4 > 100 µM | NCI-H522 > 100 µM | OVCAR-3 > 100 µM | OVCAR-4 > 100 µM | OVCAR-8 > 100 µM | PC-3 > 100 µM | RPMI-8226 > 100 µM | SF-539 83 µM | SK-MEL-2 16.8 µM | SK-MEL-5 > 100 µM | SR > 100 µM | SW-620 > 100 µM | U-251 37.5 µM

O=C(O)c1cc(CCc2cc(O)ccc2O)ccc1O
inactive: ACHN > 100 µM | EKVX > 100 µM | HCT-116 > 100 µM | HT-29 > 100 µM | IGROV-1 > 100 µM | K562 37.2 µM | MOLT-4 56.6 µM | NCI-H522 > 100 µM | OVCAR-3 > 100 µM | OVCAR-4 > 100 µM | OVCAR-8 > 100 µM | PC-3 > 100 µM | RPMI-8226 > 100 µM | SF-539 > 100 µM | SK-MEL-2 > 100 µM | SK-MEL-5 > 100 µM | SR > 100 µM | SW-620 39.2 µM | U-251 > 100 µM

O=C(c1cccnc1)N1N=C(c2ccc(Cl)cc2)CC1(O)c1cc(F)c(Cl)cc1Cl (stereo unspecified)
inactive: ACHN 18.8 µM | EKVX 17.5 µM | HCT-116 8.3 µM | HT-29 14.8 µM | IGROV-1 1.65 µM | K562 16.6 µM | MOLT-4 6.46 µM | NCI-H522 19.5 µM | OVCAR-3 6.5 µM | OVCAR-4 15.8 µM | OVCAR-8 25.1 µM | PC-3 12.9 µM | RPMI-8226 12.2 µM | SF-539 12.2 µM | SK-MEL-2 22 µM | SK-MEL-5 11.3 µM | SR 8.85 µM | SW-620 22.2 µM | U-251 14.3 µM
